Reference: publication PMC7248098, “Biochemical characterization and inhibition of the alternative oxidase enzyme from the fungal phytopathogen Moniliophthora perniciosa” (Communications Biology, 2020)
Where “and” joins values, the source holds several entries; their conditions need not be identical. Identical values can stand only once.

What was measured:
Format in all cases: biochemical
[1] = target: T1, membrane-bound rMpAOX (Moniliophthora perniciosa, UniProt A8QJP8); assay: Membrane-bound rMpAOX activity with putative activators (O2 uptake, oxygraph; dose-response); conditions: single independent measurements (Fig1a); for Fold-change in membrane-bound rMpAOX O2 uptake: 1 mM each; for fold induction at 1000 µM: pH 7.5, 1 mM each, read-out: Fold-change in membrane-bound rMpAOX O2 uptake
T1 sequence (A8QJP8 entry or part of it): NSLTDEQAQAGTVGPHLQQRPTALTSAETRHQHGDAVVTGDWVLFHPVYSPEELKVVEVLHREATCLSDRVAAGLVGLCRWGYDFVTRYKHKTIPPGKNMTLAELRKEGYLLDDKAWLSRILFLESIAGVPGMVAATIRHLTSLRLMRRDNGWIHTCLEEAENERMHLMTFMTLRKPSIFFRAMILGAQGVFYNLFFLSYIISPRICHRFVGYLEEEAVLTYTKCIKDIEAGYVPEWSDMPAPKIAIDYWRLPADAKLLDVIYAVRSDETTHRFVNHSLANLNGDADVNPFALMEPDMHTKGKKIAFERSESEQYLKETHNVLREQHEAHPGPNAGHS
Protocol: (§1) E. coli membrane preparation was performed as described with minor modifications. […] The cells were disrupted using two passes at […] through a pre-cooled Constant cell disruption system (Constant Systems Ltd). The lysate was centrifuged for 15 min at 16,000 rcf, and the pelleted unbroken cells and large cell debris were discarded. The supernatant was centrifuged for 90 min at 200,000 rcf to collect the fragmented membranes.
(§2) Respiration rates were recorded before and after the addition of putative AOX activators, such as 5′-ADP, 5′-AMP, 5′-GDP, 5′-GMP, glyoxylate, oxaloacetate, pyruvate or succinate (1 mM each unless stated otherwise). […] Data were acquired with the Multiskan FC Microplate Photometer (ThermoFisher). […] Absorbance readings were taken periodically and a blank reactions (substrate without enzyme) were included in every assay and were used to determine and subtract the autoxidation rate (background). Proteoliposomes were assayed as described for the E. coli membrane fraction except that no KCN was included and 0.5 µL of the prep (~50 ng rMpAOX) were added into the reaction. When tested, inhibitors were preincubated with the enzyme in reaction buffer for 2–5 min before starting the reaction by the addition of substrate. The path length (i.e., the height of the reaction medium inside the well) was calculated based on the reaction volume and the well cross-section area informed by the supplier. GraphPad Prism 7.0 (GraphPad Software Inc.) was used for function fitting.

[2] = target: purified rMpAOX (Moniliophthora perniciosa, UniProt A8QJP8); assay: Purified (detergent-solubilised) rMpAOX, Q1H2 oxidation; conditions: for Activity: [Q1H2]
Sequence of purified rMpAOX (A8QJP8 entry or part of it): as above
Protocol: The E. coli membrane fraction was resuspended with 50 mM Tris-HCl pH 7.5, 20% glycerol, 200 mM MgSO4 and 1% Fos-Choline-12 (FC-12) instead of MOPS buffer. The sample was left under gentle rocking for 1 h at 4 °C, after which it was centrifuged at 200,000 rcf for 30 min. […] T. Elthon, Nebraska, USA. Protein content was estimated through the Bradford method[63] and bovine serum albumin as standard.
as §2

[3] = target: rMpAOX incorporated into proteoliposomes (Moniliophthora perniciosa, UniProt A8QJP8); assay: rMpAOX incorporated into proteoliposomes with Q10 and NDH-2 (NADH oxidation); conditions: for Km / VMax: substrate ubiquinol-10 in proteoliposomes, ~50 ng rMpAOX, 300 µM NADH
Sequence of rMpAOX incorporated into proteoliposomes (A8QJP8 entry or part of it): as above
Protocol: Proteoliposomes (PL) were prepared as previously described[44],[45], except that NDH-2 was used instead of complex I and 0.5% DDM was used instead of OG. […] For kinetic studies, PLs were prepared with 50 µg rMpAOX and no NDH-2—in this case, pure NDH-2 was added directly into the enzymatic reaction mixture at a saturating concentration. Briefly, lipids and Q10 stocks in chloroform were mixed in a glass vial and the chloroform dried under a nitrogen stream. The lipids were hydrated and extruded through a 100 nm NanoSizer MINI Liposome Extruder (T&T Scientific) followed by the addition of protein. After treatment with the Bio-Beads SM-2 Resin (Bio-Rad), proteolipososmes were harvested by ultracentrifugation and resuspended in 150 µL of buffer. Enzymatic assays were performed on the same day.
as §2

[4] = target: T1, membrane-bound rMpAOX; assay: Dose-response assay of inhibitors with membrane-bound, GMP-activated rMpAOX (NADH oxidation); conditions: for Fractional velocity, %: log[I]
Protocol: as §1, §2

[5] = substrate ubiquinol-1, 0.0125% C12E8, 100 ng rMpAOX

Compound: O=C(O)CC(=O)C(=O)O [OXAL, oxaloacetate]
- Fold-change in membrane-bound rMpAOX O2 uptake ([1]; 1000 µM): 0.932 and 1.186
- fold induction at 1000 µM [1]: 0.847

Compound: CC(=O)C(=O)O [PYR, pyruvate]
- Fold-change in membrane-bound rMpAOX O2 uptake ([1]; 1000 µM): 0.7655 and 0.9453
- fold induction at 1000 µM [1]: 0.681

Compound: COc1c(O)c(C)c(CC=C(C)C)c(O)c1OC [Q1H2, ubiquinol-1]
- Oxidation rate ([2]; 180 µM Q1H2): 0.36 µmol/min/mg
- Activity ([2]; M 4.29 (Fig3c, mean)): 25.2546 nmol/min/mg
- Activity ([2]; M 6.87 (Fig3c, mean)): 30.5181 nmol/min/mg
- Activity ([2]; M 10.99 (Fig3c, mean)): 60.7997 nmol/min/mg
- Activity ([2]; M 17.58 (Fig3c, mean)): 87.5414 nmol/min/mg
- Activity ([2]; M 28.12 (Fig3c, mean)): 145.463 nmol/min/mg
- Activity ([2]; M 45 (Fig3c, mean)): 202.371 nmol/min/mg
- Activity ([2]; M 71.99 (Fig3c, mean)): 274.627 nmol/min/mg
- Activity ([2]; M 115.19 (Fig3c, mean)): 327.356 nmol/min/mg
- Activity ([2]; M 184.3 (Fig3c, mean)): 355.622 nmol/min/mg
- Km [2, 5]: 68.5 µM
- VMax [2, 5]: 504.1 nmol Q1 min^−1 mg^−1 and 504.1 ± 28.7 nmol Q1 min^−1 mg^−1

Compound: COc1c(O)c(C)c(C/C=C(\C)CC/C=C(\C)CC/C=C(\C)CC/C=C(\C)CC/C=C(\C)CC/C=C(\C)CC/C=C(\C)CC/C=C(\C)CC/C=C(\C)CCC=C(C)C)c(O)c1OC [Q10H2, ubiquinol-10]
- rMpAOX catalytic rate ([3]; 180 µM Q10H2 in the phospholipid membrane, calculated from KM and VMax): 9.3 µmol/min/mg
- Km [3]: 960 ± 760 µM
- VMax [3]: 59.4 ± 6.6 µmol Q10 min^−1 mg^−1

Compound: COC1=C(OC)C(=O)C(C/C=C(\C)CC/C=C(\C)CC/C=C(\C)CC/C=C(\C)CC/C=C(\C)CC/C=C(\C)CC/C=C(\C)CC/C=C(\C)CC/C=C(\C)CCC=C(C)C)=C(C)C1=O [Q10]
- Km [3]: 960 ± 760 µM
- VMax [3]: 59.4 µmol Q10 min^−1 mg^−1 and 59.4 ± 6.6 µmol Q10 min^−1 mg^−1

Compound: O=C(NO)c1ccccc1O [SHAM, salicylhydroxamic acid]
- Fractional velocity, % ([4]; M -4.60206 (Fig2b), 25 µM): 95.8272% and 90.1105%
- Fractional velocity, % ([4]; M -5.60206 (Fig2b), 2.5 µM): 96.6342% and 84.7725%
- Fractional velocity, % ([4]; M -6.60206 (Fig2b), 0.25 µM): 99.0344% and 87.1837%
- Fractional velocity, % ([4]; M -7.60206 (Fig2b), 0.025 µM): 97.5117% and 94.5942%
- Fractional velocity, % ([4]; M -8.60206 (Fig2b), 0.0025 µM): 99.3055% and 95.1323%
- Fractional velocity, % ([4]; M -9.60206 (Fig2b), 0.00025 µM): 99.8162% and 99.1897%
- Fractional velocity, % ([4]; M -10.6021 (Fig2b), 25 pM): 99.1867% and 91.0587%
- activity at 25 µM ([4]; read-out: Fractional velocity, %, log[I], M -4.60206 (Fig2b)): 96.4%
- activity at 2.5 µM ([4]; read-out: Fractional velocity, %, log[I], M -5.60206 (Fig2b)): 98%
- activity at 0.25 µM ([4]; read-out: Fractional velocity, %, log[I], M -6.60206 (Fig2b)): 96.1%
- activity at 0.025 µM ([4]; read-out: Fractional velocity, %, log[I], M -7.60206 (Fig2b)): 95.6%
- activity at 0.0025 µM ([4]; read-out: Fractional velocity, %, log[I], M -8.60206 (Fig2b)): 94.9%
- activity at 0.00025 µM ([4]; read-out: Fractional velocity, %, log[I], M -9.60206 (Fig2b)): 93.7%
- activity at 25 pM ([4]; read-out: Fractional velocity, %, log[I], M -10.6021 (Fig2b)): 88.7%
- Effect on membrane-bound rMpAOX ([4]; up to the maximal tested concentration of 25 µM): did not exert any effect

Compound: O=C(O)CCC(=O)O [SUCC, succinate]
- Fold-change in membrane-bound rMpAOX O2 uptake [1]: 1.198 and 0.7995 and 1.017
